Converted amounts (≈) assume the structure as drawn.

One data set concerns Pseudomonas aeruginosa. Put plainly: Antimicrobial activity against Gram-negative Pseudomonas aeruginosa PAO1 after 16 to 24 hrs by micro-dilution method. It is filed as functional. In general terms: In broth dilution the organism is exposed to a series of concentrations in liquid medium.
In data set [1] the test system is Staphylococcus aureus. The data set is described as follows: Antimicrobial activity against Gram-positive methicillin-resistant Staphylococcus aureus 1 after 16 to 24 hrs by micro-dilution method. It is filed as functional.
The test system of the next data set is Bacillus anthracis. The data set is described as follows: Antimicrobial activity against Gram-positive Bacillus anthracis str. Sterne after 16 to 24 hrs by micro-dilution method. It is filed as functional.
Data set [2] deals with Mycolicibacterium smegmatis. The data set is described as follows: Antimicrobial activity against Mycobacterium smegmatis MC2-155 after 16 to 24 hrs by micro-dilution method. It is filed as functional. Conditions: str. MC2 155.
Data set [3] relates to Staphylococcus aureus. The data set is described as follows: Antimicrobial activity against Gram-positive Staphylococcus aureus ATCC 29213 after 16 to 24 hrs by micro-dilution method. It is filed as functional.
Another data set relates to Haemophilus influenzae. Put plainly: Antimicrobial activity against Gram-negative Haemophilus influenzae ATCC 51907 after 16 to 24 hrs by micro-dilution method. It is filed as functional.
A further data set deals with Bacillus subtilis. Put plainly: Antimicrobial activity against Gram-positive Bacillus subtilis 168 after 16 to 24 hrs by micro-dilution method. It is filed as functional.
For a further data set, the system named is Bacillus cereus. Put plainly: Antimicrobial activity against Gram-positive Bacillus cereus ATCC 17788 after 16 to 24 hrs by micro-dilution method. It is filed as functional.
Data set [4] relates to Staphylococcus aureus. The data set is described as follows: Antimicrobial activity against Gram-positive methicillin-resistant Staphylococcus aureus 2 after 16 to 24 hrs by micro-dilution method. It is filed as functional.
The test system of a further data set is Listeria monocytogenes. The data set is described as follows: Antimicrobial activity against Gram-positive Listeria monocytogenes ATCC 19115 after 16 to 24 hrs by micro-dilution method. It is filed as functional.
Data set [5] concerns the target T1, Aminoglycoside 3'-phosphotransferase (Escherichia coli, UniProt P00551).
T1 sequence (P00551 whole entry): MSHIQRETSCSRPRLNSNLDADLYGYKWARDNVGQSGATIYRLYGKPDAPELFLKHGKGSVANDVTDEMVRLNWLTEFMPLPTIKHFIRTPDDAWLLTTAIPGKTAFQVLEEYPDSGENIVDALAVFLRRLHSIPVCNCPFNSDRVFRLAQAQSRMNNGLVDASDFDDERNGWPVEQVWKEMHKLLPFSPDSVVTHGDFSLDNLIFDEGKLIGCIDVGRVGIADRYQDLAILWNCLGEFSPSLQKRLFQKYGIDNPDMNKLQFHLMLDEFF
The data set is described as follows: Drug metabolism assessed as Escherichia coli APH(3')-Ia-mediated compound modification at 100 uM. It is filed as ADME.

The nature of data set [6]: Drug metabolism assessed as Staphylococcus aureus Bifunctional AAC(6')-1e/APH(2'')-1a mediated compound modification at 100 uM. It is filed as ADME.
Data set [7] in a line: Drug metabolism assessed as Mycobacterium tuberculosis Eis mediated compound modification at 100 uM. It is filed as ADME.
Data set [8] can be described thus: Drug metabolism assessed as Escherichia coli AAC(3)-IV mediated compound modification at 100 uM. It is filed as ADME.

`NC[C@H]1O[C@H](O[C@H]2[C@H](O)[C@@H](O[C@H]3O[C@H](CO)[C@@H](O)[C@H](N)[C@H]3O)[C@H](N)C[C@@H]2N)[C@H](O)[C@@H](O)[C@@H]1O` [KANAMYCIN]: the MIC was 37.5 µg/mL (≈ 77.4 µM) against Pseudomonas aeruginosa; greater than 128 µg/mL in the data set with Staphylococcus aureus [1]; greater than 128 µg/mL against Bacillus anthracis; greater than 128 µg/mL in [2]; 0.5 µg/mL (≈ 1.03 µM) in the data set with Staphylococcus aureus [3]; 9.4 µg/mL (≈ 19.4 µM) in the data set on Haemophilus influenzae. For the same compound, the MIC against Bacillus subtilis is greater than 150 µg/mL; against Bacillus cereus it was 9.4 µg/mL (≈ 19.4 µM); with Staphylococcus aureus [4], greater than 128 µg/mL; against Listeria monocytogenes, 4.7 µg/mL (≈ 9.7 µM).
As to `NCC[C@@H](O)C(=O)NC[C@H]1O[C@H](O[C@@H]2[C@@H](O)[C@H](O[C@@H]3O[C@@H](CO)[C@H](O)[C@@H](N)[C@@H]3O)[C@@H](NC(=O)[C@@H](O)CCN)C[C@H]2N)[C@H](O)[C@@H](O)[C@@H]1O` (stereo in doubt), the MIC with Pseudomonas aeruginosa was 75 µg/mL (≈ 109 µM); in the data set on Staphylococcus aureus [1], greater than 128 µg/mL; with Bacillus anthracis, greater than 128 µg/mL; in data set [2], 8 µg/mL (≈ 11.6 µM); in the data set with Staphylococcus aureus [3], 128 µg/mL (≈ 186 µM); in the data set on Haemophilus influenzae it was greater than 150 µg/mL. In addition, the MIC against Bacillus subtilis was greater than 150 µg/mL; against Bacillus cereus, 150 µg/mL (≈ 218 µM); against Staphylococcus aureus [4], greater than 128 µg/mL; against Listeria monocytogenes it was 150 µg/mL (≈ 218 µM). For the same compound, the Drug metabolism result in data set [5] is recorded as “metabolite_notdetected”; in data set [6], “metabolite_detected”; in data set [7], “metabolite_detected”; in data set [8], “metabolite_detected”.
Regarding `CN[C@@H]1[C@@H](O)[C@@H](O[C@@H]2[C@@H](O)[C@H](O[C@H]3OC(CN)=CC[C@H]3N)[C@@H](N)C[C@H]2N)OC[C@]1(C)O` [SISOMICIN], the MIC was 1.2 µg/mL (≈ 2.68 µM) against Pseudomonas aeruginosa; no more than 0.25 µg/mL with Staphylococcus aureus [1]; no more than 0.25 µg/mL against Bacillus anthracis; no more than 0.25 µg/mL in data set [2]; no more than 0.25 µg/mL against Staphylococcus aureus [3]; 4.7 µg/mL (≈ 10.5 µM) in the data set with Haemophilus influenzae. For the same compound, the MIC with Bacillus subtilis was 4.7 µg/mL (≈ 10.5 µM); against Bacillus cereus it was 9.4 µg/mL (≈ 21 µM); with Staphylococcus aureus [4], no more than 0.25 µg/mL; against Listeria monocytogenes it was 2.3 µg/mL (≈ 5.14 µM).
Regarding `N[C@H]1[C@H](O)[C@H](O[C@@H]2[C@@H](O)[C@H](O[C@@H]3O[C@@H](CNC(=O)OCc4ccccc4)[C@H](O)C[C@@H]3N)[C@@H](N)C[C@H]2N)O[C@@H](CO)[C@@H]1O` (stereo in doubt), the MIC in the data set with Pseudomonas aeruginosa is greater than 150 µg/mL; in the data set with Staphylococcus aureus [1] it was greater than 128 µg/mL; against Bacillus anthracis, 64 µg/mL (≈ 106 µM); in data set [2], 16 µg/mL (≈ 26.6 µM); against Staphylococcus aureus [3], 128 µg/mL (≈ 213 µM); in the data set with Haemophilus influenzae, 75 µg/mL (≈ 125 µM). Moreover, the MIC was greater than 150 µg/mL with Bacillus subtilis, greater than 150 µg/mL with Bacillus cereus, greater than 128 µg/mL with Staphylococcus aureus [4] and greater than 150 µg/mL in the data set with Listeria monocytogenes. For the same compound, the Drug metabolism entry is on record as “metabolite_notdetected” in [5], “metabolite_detected” in data set [6], “metabolite_detected” in [7] and “metabolite_detected” in [8].
For the compound `CCN[C@@H]1C[C@H](N)[C@@H](O[C@H]2OC(CNC(=O)CN)=CC[C@H]2N)[C@H](O)[C@H]1O[C@H]1OC[C@](C)(O)[C@H](NC)[C@H]1O`, the MIC in the data set with Pseudomonas aeruginosa was 37.5 µg/mL (≈ 70.4 µM); against Staphylococcus aureus [1], 32 µg/mL (≈ 60.1 µM); against Bacillus anthracis, 0.5 µg/mL (≈ 0.939 µM); in data set [2] it was 1 µg/mL (≈ 1.88 µM); with Staphylococcus aureus [3], 0.5 µg/mL (≈ 0.939 µM); in the data set with Haemophilus influenzae, 37.5 µg/mL (≈ 70.4 µM). Further, the MIC was determined as 37.5 µg/mL (≈ 70.4 µM) against Bacillus subtilis, 75 µg/mL (≈ 141 µM) in the data set with Bacillus cereus, 1 µg/mL (≈ 1.88 µM) with Staphylococcus aureus [4] and 18.8 µg/mL (≈ 35.3 µM) in the data set on Listeria monocytogenes. In addition, the Drug metabolism result is reported as “metabolite_notdetected” in data set [5], “metabolite_detected” in [6], “metabolite_detected” in [7] and “metabolite_detected” in data set [8].
Consider `NC[C@H]1O[C@H](O[C@H]2[C@H](O)[C@@H](O[C@H]3O[C@H](CO)[C@@H](O)[C@H](N)[C@H]3O)[C@H](N)C[C@@H]2N)[C@H](N)C[C@@H]1O` [TOBRAMYCIN], for which the MIC against Pseudomonas aeruginosa was 0.6 µg/mL (≈ 1.28 µM); with Staphylococcus aureus [1], no more than 0.25 µg/mL; in the data set on Bacillus anthracis, greater than 128 µg/mL; in [2] it was no less than 128 µg/mL; against Staphylococcus aureus [3], 0.5 µg/mL (≈ 1.07 µM); in the data set on Haemophilus influenzae, 4.7 µg/mL (≈ 10.1 µM). The MIC was 9.4 µg/mL (≈ 20.1 µM) with Bacillus subtilis, 9.4 µg/mL (≈ 20.1 µM) in the data set with Bacillus cereus, greater than 128 µg/mL against Staphylococcus aureus [4] and 2.3 µg/mL (≈ 4.92 µM) with Listeria monocytogenes.
For the compound `CN[C@@H]1[C@@H](O)[C@@H](O[C@@H]2[C@@H](O)[C@H](O[C@H]3OC(CNC(=O)CN)=CC[C@H]3N)[C@@H](N)C[C@H]2N)OC[C@]1(C)O`, the MIC was 18.8 µg/mL (≈ 37.3 µM) in the data set on Pseudomonas aeruginosa; 8 µg/mL (≈ 15.9 µM) against Staphylococcus aureus [1]; no more than 0.25 µg/mL against Bacillus anthracis; 0.5 µg/mL (≈ 0.991 µM) in data set [2]; 1 µg/mL (≈ 1.98 µM) in the data set on Staphylococcus aureus [3]; 37.5 µg/mL (≈ 74.3 µM) in the data set on Haemophilus influenzae. Also, the MIC was determined as 37.5 µg/mL (≈ 74.3 µM) in the data set with Bacillus subtilis, 75 µg/mL (≈ 149 µM) in the data set on Bacillus cereus, 2 µg/mL (≈ 3.96 µM) in the data set on Staphylococcus aureus [4] and 18.8 µg/mL (≈ 37.3 µM) in the data set with Listeria monocytogenes. Besides, the Drug metabolism entry in [5] is recorded as “metabolite_notdetected”; in data set [6], “metabolite_detected”; in data set [7], “metabolite_detected”; in data set [8], “metabolite_detected”.
`NCC[C@H](O)C(=O)N[C@@H]1C[C@H](N)[C@@H](O[C@H]2O[C@H](CN)[C@@H](O)[C@H](O)[C@H]2O)[C@H](O)[C@H]1O[C@H]1O[C@H](CO)[C@@H](O)[C@H](N)[C@H]1O` [AMIKACIN]: the MIC with Pseudomonas aeruginosa is 2.3 µg/mL (≈ 3.93 µM); in the data set with Staphylococcus aureus [1] it was 0.5 µg/mL (≈ 0.854 µM); against Bacillus anthracis it was 16 µg/mL (≈ 27.3 µM); in data set [2], no more than 0.25 µg/mL; against Staphylococcus aureus [3] it was 1 µg/mL (≈ 1.71 µM); against Haemophilus influenzae, 37.5 µg/mL (≈ 64 µM). Moreover, the MIC against Bacillus subtilis was determined as 37.5 µg/mL (≈ 64 µM); in the data set with Bacillus cereus it was 9.4 µg/mL (≈ 16.1 µM); against Staphylococcus aureus [4] it was 32 µg/mL (≈ 54.6 µM); against Listeria monocytogenes, 9.4 µg/mL (≈ 16.1 µM).
Take `NCC(=O)NCC[C@H](O)C(=O)N[C@H]1C[C@@H](N)[C@H](O[C@H]2O[C@H](CNC(=O)CN)[C@@H](O)[C@H](O)[C@H]2O)[C@@H](O)[C@@H]1O[C@H]1O[C@H](CO)[C@@H](O)[C@H](N)[C@H]1O` (stereo in doubt): the MIC against Pseudomonas aeruginosa is greater than 150 µg/mL; in the data set with Staphylococcus aureus [1], greater than 128 µg/mL; in the data set on Bacillus anthracis, greater than 128 µg/mL; in data set [2], 64 µg/mL (≈ 91.5 µM); in the data set on Staphylococcus aureus [3] it was greater than 128 µg/mL; against Haemophilus influenzae, greater than 150 µg/mL. For the same compound, the MIC against Bacillus subtilis is greater than 150 µg/mL; in the data set on Bacillus cereus, greater than 150 µg/mL; with Staphylococcus aureus [4] it was greater than 128 µg/mL; against Listeria monocytogenes it was greater than 150 µg/mL. The Drug metabolism entry in [5] is listed as “metabolite_notdetected”; in data set [6] it was “metabolite_detected”; in data set [7], “metabolite_detected”; in data set [8], “metabolite_detected”.
Regarding `CCN[C@@H]1C[C@H](N)[C@@H](O[C@H]2OC(CN)=CC[C@H]2N)[C@H](O)[C@H]1O[C@H]1OC[C@](C)(O)[C@H](NC)[C@H]1O` [NETILMICIN], the MIC is 2.3 µg/mL (≈ 4.84 µM) in the data set on Pseudomonas aeruginosa; no more than 0.25 µg/mL in the data set with Staphylococcus aureus [1]; no more than 0.25 µg/mL with Bacillus anthracis; no more than 0.25 µg/mL in data set [2]; no more than 0.25 µg/mL with Staphylococcus aureus [3]; 2.3 µg/mL (≈ 4.84 µM) against Haemophilus influenzae. The MIC against Bacillus subtilis was 4.7 µg/mL (≈ 9.88 µM); in the data set with Bacillus cereus, 4.7 µg/mL (≈ 9.88 µM); in the data set with Staphylococcus aureus [4], no more than 0.25 µg/mL; against Listeria monocytogenes, 2.3 µg/mL (≈ 4.84 µM).

The values above are taken from ChEMBL document CHEMBL3751713, “Synthesis and Biological Activity of Mono- and Di-N-acylated Aminoglycosides” (ACS Med Chem Lett, 2015).
